Experimental data reported in US20230406864A1, “7-AZOLE SUBSTITUTED 2-AMINOQUINAZOLINE INHIBITORS OF HPK1” (MERCK SHARP & DOHME LLC, priority 2020, published 2023).

Biological target: T1, Human HPK1, catalytic domain (Homo sapiens, UniProt Q92918)
T1 construct: purchased Cama (so in the source)
T1 sequence (Q92918 1-346): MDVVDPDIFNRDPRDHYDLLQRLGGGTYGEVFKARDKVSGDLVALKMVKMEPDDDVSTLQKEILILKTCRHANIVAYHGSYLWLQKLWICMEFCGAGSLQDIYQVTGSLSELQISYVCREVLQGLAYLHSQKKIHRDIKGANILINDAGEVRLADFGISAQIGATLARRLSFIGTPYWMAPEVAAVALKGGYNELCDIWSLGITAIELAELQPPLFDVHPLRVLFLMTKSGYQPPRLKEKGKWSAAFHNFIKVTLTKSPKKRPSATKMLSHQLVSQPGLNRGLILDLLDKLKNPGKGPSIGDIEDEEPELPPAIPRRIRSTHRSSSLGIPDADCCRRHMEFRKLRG
Test: HPK1-SLP76 TR-FRET assay
Type: biochemical
Conditions: HPK1 kinase domain 0.075 nM; full length SLP-76 10 nM; ATP 10 μM; 30 min preincubation; 60 min reaction; room temperature

Compound `CCn1ncc(Nc2ncc3c(N)c(F)c(-c4cnc5c(c4C)NCCO5)cc3n2)c1C` [Example 2-16, N~2~-(1-ethyl-5-methyl-1H-pyrazol-4-yl)-6-fluoro-7-(8-methyl-2,3-dihydro-1H-pyrido[2,3-b][1,4]oxazin-7-yl)quinazoline-2,5-diamine] has an IC50 of 0.51 nM.
